Experimental data from ChEMBL document CHEMBL4483862, “Open-source discovery of chemical leads for next-generation chemoprotective antimalarials” (2018).

Test system: Plasmodium berghei
Test: Luciferase/luciferin-expressing antifolate-resistant parasites were used to infect a culture of HepG2 cells that were pre-incubated with compounds. Infected hepatocytes emit light due to the luciferase reaction. Assay results are presented as the percent inhibition of light emission compared to control. […]
Assay type: functional
Conditions: sporozoite; for IC90: read-out: LUCIFERASE INFECTION ASSAY - IC90
[1] = read-out: LUCIFERASE INFECTION ASSAY - IC50

| SMILES | IC90 | IC50 [1] | further results |
| --- | --- | --- | --- |
| O=C(Nc1cccc(F)c1)Nc1ccc2nc(Cc3ccccc3)nn2c1 | 1.35 µM |  | IC50 (HEPG2TOX_HILL_SLOPE 1.95, HEPG2TOX_R_SQUARED 0.988, PBLUC_HILL_SLOPE 12.2, PBLUC_R_SQUARED 0.455, read-out: LUCIFERASE INFECTION ASSAY - IC50): 1.12 µM |
| Cc1ccc(CNc2ccc3nnc(C(F)(F)F)n3n2)cc1 | > 10 µM |  | IC50 (FFLUC_HILL_SLOPE 15, FFLUC_R_SQUARED 0.243, read-out: LUCIFERASE INFECTION ASSAY - IC50): > 10 µM |
| Cc1sc2nc(CN3CCOCC3)nc(NCCOc3ccccc3)c2c1C | > 10 µM | > 10 µM |  |
| CCCn1c(N)c(C(=O)CSc2nc3sc(C)c(C)c3c(=O)n2-c2ccccc2)c(=O)[nH]c1=O | > 10 µM | > 10 µM |  |
| CC(C)c1cccc(Nc2nnc(C(O)c3cccc(N(C)C)c3)s2)c1 (stereo unspecified) | > 10 µM |  | IC50 (HEPG2TOX_HILL_SLOPE 0.177, HEPG2TOX_R_SQUARED 0.124, PBLUC_HILL_SLOPE 3.19, PBLUC_R_SQUARED 0.0119, read-out: LUCIFERASE INFECTION ASSAY - IC50): > 10 µM |
| C[C@]12CC[C@H](O)C[C@H]1CCC1C2[C@H](O)C[C@]2(C)[C@@H](C3=CC(=O)OC3)CC[C@]12O (stereo partly specified) | > 8.45 µM |  | IC50 (HEPG2TOX_HILL_SLOPE 3.83, HEPG2TOX_R_SQUARED 0.791, PBLUC_HILL_SLOPE 2.47, PBLUC_R_SQUARED 0.389, read-out: LUCIFERASE INFECTION ASSAY - IC50): 3.98 µM |
| Cc1cc(OCC(=O)NCCc2c(C)cc(C(C)(C)C)cc2C)no1 | 6.12 µM |  | IC50 (PBLUC_HILL_SLOPE 10.6, 8.08, PBLUC_R_SQUARED 0.262, 0.836, read-out: LUCIFERASE INFECTION ASSAY - IC50): 4.78 µM |
| Cc1ccc(COC(=O)c2cccc(S(=O)(=O)NCc3ccccc3)c2)cc1 | 4.92 µM |  | IC50 (HEPG2TOX_HILL_SLOPE 2.79, HEPG2TOX_R_SQUARED 0.991, PBLUC_HILL_SLOPE 8.82, PBLUC_R_SQUARED 0.278, read-out: LUCIFERASE INFECTION ASSAY - IC50): 3.84 µM |
| CC1=C(C(=O)c2ccc(Cl)cc2)C(c2ccc(C(F)(F)F)cc2)NC(=O)N1 (stereo unspecified) | > 10 µM | > 10 µM |  |
| COc1cc2c(cc1OC)C(c1ccccc1)N(C(=O)/C=C/c1ccsc1)CC2 (stereo unspecified) | > 10 µM | > 10 µM |  |
| CCC(CC)c1nn(CC(=O)c2cc(C)n(CCOC)c2C)c(=N)s1 | > 10 µM |  | IC50 (PBLUC_HILL_SLOPE 8.4, PBLUC_R_SQUARED 0.0548, read-out: LUCIFERASE INFECTION ASSAY - IC50): 9.17 µM |
| O=C1N(CCCc2cccnc2)C(=O)C2(CCN(Cc3ccsc3)CC2)N1Cc1ccccc1 | > 6.95 µM | > 6.95 µM |  |
| CC(c1cc2ccccc2o1)N(C)C(=O)Cc1ccccc1F (stereo unspecified) | > 10 µM | > 10 µM |  |
| O=C(NC1CC1)c1csc(C(O)c2cccc(C(F)(F)F)c2)n1 (stereo unspecified) | 1.14 µM |  | IC50 (HEPG2TOX_HILL_SLOPE 2.89, HEPG2TOX_R_SQUARED 0.879, PBLUC_HILL_SLOPE 2.14, PBLUC_R_SQUARED 0.663, read-out: LUCIFERASE INFECTION ASSAY - IC50): 0.408 µM |
| CN(C)c1nc(C=C(C#N)C#N)c(Cl)n1-c1ccc(F)cc1 | > 10 µM | > 10 µM |  |
| CCCn1c(NC(=O)CCN(c2ccc(C)cc2)S(=O)(=O)c2ccc(C)cc2)nc2ccccc21 | > 10 µM | > 10 µM |  |
| O=c1c2ccccc2nc(Sc2ccc([N+](=O)[O-])c(C(F)(F)F)c2)n1-c1ccc(OC(F)F)cc1 | > 10 µM | > 10 µM |  |
| Cc1c(C)n(CC(C)C)c2ncnc(Nc3nccs3)c12 | > 10.9 µM | > 10.9 µM |  |
| Cc1cc(/C=C/C(=O)Nc2nccs2)c(C)n1-c1ccccc1 | 3.27 µM |  | IC50 (PBLUC_HILL_SLOPE 1.4, PBLUC_R_SQUARED 0.69, read-out: LUCIFERASE INFECTION ASSAY - IC50): 0.681 µM |
| CNC(=O)c1ccc(CN(Cc2ccc(SC)cc2)Cc2ccco2)cc1 | 0.736 µM |  | IC50 (PBLUC_HILL_SLOPE 13.4, PBLUC_R_SQUARED 0.501, read-out: LUCIFERASE INFECTION ASSAY - IC50): 0.624 µM |
| COc1ccc2nc(C(=O)NNC(=O)c3cc(C)oc3C)ccc2c1 | > 10 µM |  | IC50 (HEPG2TOX_HILL_SLOPE 10.5, HEPG2TOX_R_SQUARED 0.205, PBLUC_HILL_SLOPE 2.55, PBLUC_R_SQUARED 0.459, read-out: LUCIFERASE INFECTION ASSAY - IC50): 6.67 µM |
| O=c1nc(-c2ccc3c(c2)OCCO3)[nH]c2sc(-c3ccccc3)cc12 | 4.31 µM |  | IC50 (HEPG2TOX_HILL_SLOPE 1.86, HEPG2TOX_R_SQUARED 0.902, PBLUC_HILL_SLOPE 1.77, PBLUC_R_SQUARED 0.594, read-out: LUCIFERASE INFECTION ASSAY - IC50): 1.25 µM |
| CCOc1ccccc1NS(=O)(=O)c1ccc(C(=O)OC)cc1 | > 10 µM |  | IC50 (HEPG2TOX_HILL_SLOPE 3.9, HEPG2TOX_R_SQUARED 0.853, PBLUC_HILL_SLOPE 3.26, PBLUC_R_SQUARED 0.571, read-out: LUCIFERASE INFECTION ASSAY - IC50): 7.52 µM |
